Measurements published in ChEMBL document CHEMBL1137935 (Bioorg Med Chem Lett, 2004).

Assays:
[1] = Plasma clearance after IV dosing at 1 mg/kg in rat; type: ADME, organism-based; parameters: dose 1 mg/kg, route intravenous; settings: read-out: Clp
[2] = target: T1, Adenosine receptor A1 (Cavia porcellus) (UniProt P47745); experiment: Binding affinity against […] using [35S]GTP-gamma-S, radioligand in guinea pig.; type: functional
T1 sequence (whole entry): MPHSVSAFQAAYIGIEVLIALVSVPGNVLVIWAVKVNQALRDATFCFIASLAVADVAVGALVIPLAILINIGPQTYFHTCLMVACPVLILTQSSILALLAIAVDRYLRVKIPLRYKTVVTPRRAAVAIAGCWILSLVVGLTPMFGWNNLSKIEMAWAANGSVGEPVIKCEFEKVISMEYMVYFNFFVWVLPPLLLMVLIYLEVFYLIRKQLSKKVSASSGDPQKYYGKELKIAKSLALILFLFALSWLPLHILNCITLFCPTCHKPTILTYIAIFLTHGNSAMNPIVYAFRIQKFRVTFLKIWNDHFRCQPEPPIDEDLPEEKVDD

[3] = Bioavailability after oral administration at a dose of 4 mg/kg in rat; type: ADME, organism-based; settings: in vivo
[4] = Elimination half-life after oral administration at a dose of 4 mg/kg in rat; type: ADME, organism-based; parameters: dose 4 mg/kg, route oral; settings: in vivo
[5] = Cmax after oral administration at a dose of 4 mg/kg in rat; type: ADME, organism-based; parameters: dose 4 mg/kg, route oral; settings: in vivo
[6] = target: T1, Adenosine receptor A1 (Cavia porcellus)
Adenosine receptor A1 = target: T2, Adenosine receptor A1 (Cavia porcellus, UniProt P47745); experiment: Agonistic activity against adenosine A1 receptor in guinea pig isolated hearts; type: functional
T2 sequence (P47745 whole entry): T1 sequence (whole entry)

[7] = Elimination half-life after IV dosing at 1 mg/kg in rat; type: ADME, organism-based; parameters: dose 1 mg/kg, route intravenous; settings: in vivo
[8] = target: T1, Adenosine receptor A1 (Cavia porcellus); remark: listed apart in the source
[9] = target: T1, Adenosine receptor A1 (Cavia porcellus); experiment: Binding affinity against adenosine A1 receptor using [3H]CPX in guinea pig DDT membrane; 117+/-46
[10] = Plasma clearance after IV dosing at 0.5 mg/kg in rat; type: ADME, organism-based; parameters: dose 0.5 mg/kg, route intravenous; settings: read-out: Clp
[11] = target: T1, Adenosine receptor A1 (Cavia porcellus); experiment: Binding affinity against adenosine A1 receptor using [3H]CCPA in guinea pig DDT membrane; 12.7+/-1.5
[12] = Elimination half-life after IV dosing at 0.5 mg/kg in rat; type: ADME, organism-based; parameters: dose 0.5 mg/kg, route intravenous; settings: in vivo
[13] = Elimination half-life after oral administration at a dose of 2 mg/kg in rat; type: ADME, organism-based; parameters: dose 2 mg/kg, route oral; settings: in vivo
[14] = Bioavailability after oral administration at a dose of 2 mg/kg in rat; type: ADME, organism-based; settings: in vivo
[15] = Cmax after oral administration at a dose of 2 mg/kg in rat; type: ADME, organism-based; parameters: dose 2 mg/kg, route oral; settings: in vivo

For `OC1[C@@H](O)C(n2cnc3c(NC4CCOC4)ncnc32)O[C@@H]1CSc1ccccc1F` (single isomer, unassigned), the clearance [1] was 69.4 mL/min/kg, the efficacy relative to CPA [2] was 72% and the bioavailability [3] was 12.3%. For the same compound, the half-life [4] was 78 min, the Cmax [5] was 107 ng/mL and the Ki low [6] was 0.506 µM. It also gave an EC50 (Adenosine receptor A1) of 1.26 µM, a half-life [7] of 24 min and a Ki high [8] of 0.079 µM.
Compound `OC1[C@@H](O)C(n2cnc3c(NC4CCOC4)ncnc32)O[C@@H]1COc1ccccc1F` (single isomer, unassigned) has a Ki low [9] of 0.117 µM, an efficacy relative to CPA [2] of 78% and a clearance [10] of 202 mL/min/kg. The Ki high [11] was 0.0127 µM, the half-life [12] was 18 min and the half-life [13] was 96 min. For the same compound, the EC50 (Adenosine receptor A1) was 0.2 µM, the bioavailability [14] was 81% and the Cmax [15] was 60.3 ng/mL.
